Values quoted from earlier work, collected in paper PMC10537421, “Co-Dispersion Delivery Systems with Solubilizing Carriers Improving the Solubility and Permeability of Cannabinoids (Cannabidiol, Cannabidiolic Acid, and Cannabichromene) from Cannabis sativa (Henola Variety) Inflorescences” (Pharmaceutics, 2023).
Read-outs that look alike come from different tables or passages of the source.

Columns and labels:
[1] = for CBD released: SIF and SGF
[2] = for bioavailability: oral administration; for bioavailability after inhalation: smoking or vaporizing

## CCCCCc1cc(O)c2c(c1)OC(C)(CCC=C(C)C)C=C2 (stereo not drawn) [CBC, cannabichromene]
approximate
  pKa: 9.5–10.3

## C=C(C)[C@@H]1CCC(C)=C[C@H]1c1c(O)cc(CCCCC)cc1O [CBD, cannabidiol]
other
  pKa: 9.3–10.3
[1]; 1 h
  CBD released: less than 3%
[1]; 48 h
  CBD released: less than 10%
[1]; simulated intestinal fluid
  CBD detected after SIF digestion (bioaccessibility): 29%
[2]
  bioavailability after sublingual administration: 13–19%
  bioavailability: ≈ 6%
  bioavailability after inhalation: 11–45%

## C=C(C)[C@@H]1CCC(C)=C[C@H]1c1c(O)cc(CCCCC)c(C(=O)O)c1O [CBDA, cannabidiolic acid]
approximate
  pKa: ~2.9

## CCCCCc1cc(O)c2c(c1)OC(C)(C)[C@@H]1CCC(C)=C[C@@H]21 [THC, tetrahydrocannabinol]
[2]
  bioavailability after sublingual administration: 13–14%
  bioavailability: 4–12%
  bioavailability after inhalation: 10% to 35%
